{"source": "patent US20140127158A1", "about": "“COMBINATION THERAPY FOR HEPATITIS C VIRUS INFECTION” (National Health Research Institute, priority 2012, published 2014)", "key": {"[1]": {"system": "HCV genotype 1b replicon (Con1)", "experiment": "Inhibitory assay for HCV replicons (luciferase), genotype 1b Con1", "type": "cell-based, Hepatitis C virus", "experimental": "(§1) (2) Cell culture and HCV inhibitors. Huh-7.5 cells and their derivative HCV replicon cell lines were maintained in Dulbecco's modified Eagle's medium (DMEM, Gibco/BRL) that was supplemented with 100 U/mL penicillin-streptomycin (Gibco/BRL), 0.1 mM nonessential amino acid (NEAA, Gibco/BRL) and 10% fetal bovine serum (FBS) heat inactivated at 37° C. in 5% CO2. The HCV replicon cell lines were isolated from colonies as described in Lohman et al., Science 285:110-3 (1999). The culture medium for the replicon cells was additionally supplemented with 0.25 to 0.5 mg/mL of G418, unless specified otherwise. Compound DBPR110 and sofosbuvir were synthesized at the Institute of Biotechnology and Pharmaceutical Research at the National Health Research Institutes in Taiwan. Telaprevir (Lin et al., Antimicrob Agents Chemother, 50:1813-22 (2006)) was purchased from Acme Biosciences (Belmont, Calif.). The compounds were stored at −20° C. as 10 to 500 mM dimethyl sulfoxide (DMSO) stock solutions until the assay. IFN-α was purchased from Calbiochem (La Jolla, Calif.) and stored at −80° C.\n(§2) (3) Inhibitory assay for HCV replicons. Cells were seeded at 1×10^4 (high-throughput screening assay) or 1×10^5 (regular assay) cells/well in 96- or 12-well plate, respectively, and incubated for 4 h. The medium was then aspirated and replaced with 0.1 (96-well plate) or 1 (12-well plate) mL of complete medium containing a single compound or combinations of compounds in serial concentration(s). The plates with compounds were incubated for 72 h and then assayed for luciferase expression (Promega). The EC50 of each compound was determined independently and used to determine the range of concentrations used for the combination experiments. All data are presented as the means±standard deviations (SD) from three independent experiments. The selectivity index (SI) was calculated as the ratio of the CC50 to the EC50."}, "[2]": {"system": "HCV genotype 2a replicon (JFH1)", "experiment": "Inhibitory assay for HCV replicons (luciferase), genotype 2a JFH1", "type": "cell-based, Hepatitis C virus", "experimental": "as §1, §2"}, "Cytotoxicity assay (MTT)": {"experiment": "Cytotoxicity assay (MTT)", "type": "cell-based", "settings": "human, read-out: CC50", "experimental": "(4) Cytotoxicity assay. The sensitivity of the cell lines to inhibitors was examined using a 3-(4,5-Dimethylthiazol-2-yl)-2,5-diphenyltetrazolium bromide (MTT) assay. Briefly, Huh-7.5 cells were plated at a density of 1×10^5 cells per well in 12-well plates containing 1 mL of culture medium for 4 h. Serial dilutions of the compounds or DMSO (negative control) were added, and the plates were incubated for an additional 72 h. The MTT reagent was then added to each well, and the plates were incubated for 3 h at 37° C. in a humidified 5% CO2 atmosphere before reading at a wavelength of 563 nm using an ELISA plate reader. All data are presented as the means +/−SD from four independent experiments."}, "HCV1b replicon": {"system": "HCV1b replicon", "experiment": "Serum shift assay", "type": "cell-based, Hepatitis C virus", "settings": "for EC90 / EC50: Hepatitis C virus; for EC50: read-out: E50", "experimental": "(9) Serum shift assay. In the serum shift assay, the inhibitory activity of DBPR110 was determined using replicon 1b in the presence of 10, 20, 30, 40 or 50% fetal bovine serum, or 10 or 40% of extracellular normal human serum."}, "[3]": {"system": "HCV1b reporter replicon pRS-Luc-HCV1bRep", "experiment": "Transient HCV1b reporter replicon time course (viral translation vs RNA synthesis)", "type": "cell-based, Hepatitis C virus", "experimental": "(8) RNA transcription and transient replicon assay. The RNA transcripts were synthesized in vitro using ScaI-digested DNAs and the T7 MegaScript transcription kit (Ambion) according to the manufacturer's directions. A transient replicon assay was performed to quantify the compound-mediated inhibition of viral translation (Dears et al., J Virol 79:4599-609 (2005)). RNA transcripts were transfected into Huh-7.5 cells by electroporation, as described previously. See, e.g., Blight et al., J Virol 76:13001-14 (2002). A specific concentration of DBPR110 or the control medium was added to each well, and the cells were assayed to determine the luciferase activity at 4 h and 72 h post-transfection. […] For quantification of the compound-mediated inhibition, the relative luciferase activity derived from the mock-treated cells was set to 100% (Zou et al., Virology 384:242-52 (2009)).\nTo distinguish inhibition of viral translation from inhibition of RNA synthesis, the reduction rate of reporter gene expression level was monitored as an indicator of the inhibitory activity of DBPR110. […] The luciferase activity was monitored several times over a period of 72 hours posttransfection. […] The luciferase activity was measured at 4, 8, 24, 48, and 72 hours posttransfection."}, "HCV genotype 1b replicon": {"system": "HCV genotype 1b replicon", "experiment": "Inhibitor combination study (combination index, CalcuSyn)", "settings": "at the concentrations used in the combination experiments"}, "[4]": {"settings": "Hepatitis C virus, JFH1 replicon cell line"}}, "note": "Read-outs that look alike come from different tables or passages of the source."}
{"molecule": "O=C(N[C@@H](C(=O)N1CCC[C@H]1c1ncc(-c2ccc(-c3ccc(-c4cnc([C@@H]5CCCN5C(=O)[C@H](NC(=O)C5CC5)c5ccccc5)s4)cc3)cc2)s1)c1ccccc1)C1CC1", "note": "[DBPR110]", "values": [{"measurement": "EC50", "setting": "[1]; Hepatitis C virus, HCV-1b replicon cell lines, single agent, combination study system, read-out: EC50", "result": "0.0033 ± 0.0008", "unit": "nM"}, {"measurement": "EC50", "setting": "[1]; Hepatitis C virus, parental genotype 1b replicon cells, read-out: EC50", "result": 0.0039, "unit": "nM"}, {"measurement": "EC50", "setting": "[1]; Hepatitis C virus, Genotype 1b, Con1 replicon cell line, read-out: Luciferase activity assay EC50", "result": 0.0039, "unit": "nM"}, {"measurement": "EC90", "setting": "[1]; Hepatitis C virus, Genotype 1b, Con1 replicon cell line, read-out: Luciferase activity assay EC90", "result": "0.0082 ± 0.0018", "unit": "nM"}, {"measurement": "susceptibility of genotype 1b greater than that of genotype 2a replicon cells", "setting": "[1]; genotype 1b vs genotype 2a replicon cells", "result": 74, "unit": "fold"}, {"measurement": "Selective index", "setting": "[2]; CC50/EC50, JFH1", "result": ">173,130"}, {"measurement": "EC50", "setting": "[2]; [4]", "result": 0.229, "unit": "nM"}, {"measurement": "EC90", "setting": "[2]; [4]", "result": "0.465 ± 0.0966", "unit": "nM"}, {"measurement": "CC50 at 72 h", "setting": "Cytotoxicity assay (MTT); Genotype 2a, JFH1", "result": "> 50000", "unit": "nM"}, {"measurement": "CC50 at 72 h", "setting": "Cytotoxicity assay (MTT); HCV-1b replicon cell lines, single agent", "result": "> 50", "unit": "nM"}, {"measurement": "CC50 at 72 h", "setting": "Cytotoxicity assay (MTT); Huh-7.5 cells, Genotype 1b, Con1", "result": "> 50000", "unit": "nM"}, {"measurement": "CC50 at 72 h", "setting": "Cytotoxicity assay (MTT); Infectious HCV, Genotype 2a, JFH1", "result": "> 50000", "unit": "nM"}, {"measurement": "Shift fold (EC50)", "setting": "HCV1b replicon; 10% FBS", "result": 1.0, "unit": "fold"}, {"measurement": "Shift fold (EC90)", "setting": "HCV1b replicon; 10% FBS", "result": 1.0, "unit": "fold"}, {"measurement": "Shift fold (EC50)", "setting": "HCV1b replicon; 10% NHS (normal human serum)", "result": 1.0, "unit": "fold"}, {"measurement": "Shift fold (EC90)", "setting": "HCV1b replicon; 10% NHS (normal human serum)", "result": 1.0, "unit": "fold"}, {"measurement": "Shift fold (EC50)", "setting": "HCV1b replicon; 20% FBS", "result": 1.9, "unit": "fold"}, {"measurement": "Shift fold (EC90)", "setting": "HCV1b replicon; 20% FBS", "result": 2.6, "unit": "fold"}, {"measurement": "Shift fold (EC50)", "setting": "HCV1b replicon; 30% FBS", "result": 1.8, "unit": "fold"}, {"measurement": "Shift fold (EC90)", "setting": "HCV1b replicon; 30% FBS", "result": 2.3, "unit": "fold"}, {"measurement": "Shift fold (EC50)", "setting": "HCV1b replicon; 40% FBS", "result": 3.1, "unit": "fold"}, {"measurement": "Shift fold (EC90)", "setting": "HCV1b replicon; 40% FBS", "result": 3.8, "unit": "fold"}, {"measurement": "Shift fold (EC50)", "setting": "HCV1b replicon; 40% NHS (normal human serum)", "result": 6.3, "unit": "fold"}, {"measurement": "Shift fold (EC90)", "setting": "HCV1b replicon; 40% NHS (normal human serum)", "result": 14.1, "unit": "fold"}, {"measurement": "Shift fold (EC50)", "setting": "HCV1b replicon; 50% FBS", "result": 5.0, "unit": "fold"}, {"measurement": "Shift fold (EC90)", "setting": "HCV1b replicon; 50% FBS", "result": 4.5, "unit": "fold"}, {"measurement": "EC90", "setting": "HCV1b replicon; 10% FBS", "result": "0.0093 ± 0.0034", "unit": "nM"}, {"measurement": "EC50", "setting": "HCV1b replicon; 10% FBS", "result": "0.0043 ± 0.0008", "unit": "nM"}, {"measurement": "EC90", "setting": "HCV1b replicon; 10% NHS (normal human serum)", "result": "0.0416 ± 0.0013", "unit": "nM"}, {"measurement": "EC50", "setting": "HCV1b replicon; 10% NHS (normal human serum)", "result": "0.0335 ± 0.0004", "unit": "nM"}, {"measurement": "EC90", "setting": "HCV1b replicon; 20% FBS", "result": "0.0238 ± 0.011", "unit": "nM"}, {"measurement": "EC50", "setting": "HCV1b replicon; 20% FBS", "result": "0.0081 ± 0.0016", "unit": "nM"}, {"measurement": "EC90", "setting": "HCV1b replicon; 30% FBS", "result": "0.0216 ± 0.017", "unit": "nM"}, {"measurement": "EC50", "setting": "HCV1b replicon; 30% FBS", "result": "0.0079 ± 0.0009", "unit": "nM"}, {"measurement": "EC90", "setting": "HCV1b replicon; 40% FBS", "result": "0.0351 ± 0.0074", "unit": "nM"}, {"measurement": "EC50", "setting": "HCV1b replicon; 40% FBS", "result": "0.0132 ± 0.0017", "unit": "nM"}, {"measurement": "EC90", "setting": "HCV1b replicon; 40% NHS (normal human serum)", "result": "0.588 ± 0.0459", "unit": "nM"}, {"measurement": "EC50", "setting": "HCV1b replicon; 40% NHS (normal human serum)", "result": "0.211 ± 0.0063", "unit": "nM"}, {"measurement": "EC90", "setting": "HCV1b replicon; 50% FBS", "result": "0.0419 ± 0.0072", "unit": "nM"}, {"measurement": "EC50", "setting": "HCV1b replicon; 50% FBS", "result": "0.0215 ± 0.01", "unit": "nM"}, {"measurement": "effect on the Rluc signals", "setting": "[3]; 4 and 8 hours posttransfection (viral translation)", "result": "minimal effect"}, {"measurement": "effect on the Rluc signals", "setting": "[3]; 24, 48, and 72 hours posttransfection (RNA replication), P<0.001", "result": "significantly reduced"}, {"measurement": "cytotoxicity", "setting": "HCV genotype 1b replicon", "result": "No cytotoxicity was observed"}]}
